Experimental data reported in patent US20040152766A1, “Composition comprising demethylcantharidin in combination with platinum-containing anticancer agents and use thereof” (priority 2003, published 2004).
Where “and” joins values, the source holds several entries; their conditions need not be identical. Equal entries are not always repeated. Where two headings read alike, the source gives them in different places.

Experiments:
[1] = test system: NCI: H460 human lung cancer; test: In vitro antitumor-drug screening, MTT assay, NCI:H460; format: cell-based; conditions: n = 12-16 from 3-4 independent experiments, read-out: Growth-inhibitory activity IC50 ± sd
Method: (§1) Test complexes 1-5, DMC, hydrolyzed DMC, cantharidin, together with controls cisplatin and carboplatin, were screened for in vitro antitumor activity against a series of human cancer cell lines and mouse leukaemia L1210, using a tetrazolium microculture assay.
(§2) Drugs: Drugs to be tested were dissolved in complete medium at twice the highest concentration to be used, followed by filter (0.22 μm) sterilization. A series of log dilutions were made of each drug solution using complete medium. All drug solutions were prepared within 10 minutes before adding to the cells.
(§3) Cells: MDA-MB-231 (human breast), SK-OV-3 (human ovarian), SK-Hep-1 (human liver), COLO320DM (human colon), L1210 (mouse leukaemia), NCI:H460 (human lung) and NTERA-Scl-D1 (human testicular) were obtained from the American Type Culture Collection (ATCC).
(§4) The cultures were incubated for an additional 72 hours.
(§5) Data analysis: The mean OD for all 12 control wells was determined. For each concentration of each drug, the mean OD of the 4 wells was determined. All mean OD was subtracted from the blank to account for the background. The “Percent of Control” values were determined and plotted. The concentration of drug resulting in 50% growth inhibition (IC50) was determined using the software Prism 3.0 by fitting the graph into sigmoidal dose-response curve.

[2] = test system: NTERA-S cl D1 human testicular cancer; test: In vitro antitumor-drug screening, MTT assay, NTERA-S cl D1; format: cell-based; conditions: n = 12-16 from 3-4 independent experiments, read-out: Growth-inhibitory activity IC50 ± sd
Method: as §1, §2, §3, §4, §5

[3] = test system: COLO320DM human colon cancer; test: In vitro antitumor-drug screening, MTT assay, COLO320DM; format: cell-based
Method: as §1, §2, §3, §4, §5

[4] = test system: SK-OV-3 human ovarian cancer; test: In vitro antitumor-drug screening, MTT assay, SK-OV-3; format: cell-based
Method: as §1, §2, §3, §4, §5

[5] = test system: Cisplatin-resistant L1210 mouse leukaemia; conditions: for fold-resistant (cross-resistance): Dm in CDDP-resistant L1210 versus sensitive L1210
Method: (§6) In vitro drug exposure: Trypsinized cells were adjusted to a concentration of 2×10^5 cells/ml in complete medium and for each drug to be tested, 0.1 ml of the cell suspension was added to each of the 24 wells of a 96-well microtitre plate. The plate was then incubated at standard conditions for 24 hours in order to allow the cells to attach to the bottom of the well and resume exponential growth. To each well of the control cultures and drug/concentration combination, 0.1 ml of complete medium and drug solution respectively was added. Each drug/concentration combination consisted of 4 replicates while control cultures consisted of 12 replicates. 12 replicates of blank consisting of 0.2 ml complete medium were set aside to account for the background. The cultures were incubated for an additional 72 hours. All experiments were repeated at least 3 times on different occasions.
(§7) MTT assay: The MTT (tetrazolium) assay was used to determine the growth-inhibitory effects of different drugs. A 5 mg/ml solution of MTT (3-(4,5-dimethylthiazol-2-yl)-2,5-diphenyltetrazolium bromide) was prepared in phosphate buffer saline (pH 7.4), filter (0.22 μm) sterilized and stored at −20° C. To each well, 0.02 ml of the MTT solution was added and the plates were incubated at standard conditions for 4 hours. The media from each well was then removed and 0.1 ml of DMSO (dimethylsulfoxide) was added to each well to solubilize the colored dye produced from the metabolic reduction of MTT. The amount of reduced MTT was determined by spectrophotometric means (570 nm).
(§8) Platinum compounds were evaluated alone and in combination with demethylcantharidin (DMC) for their cytotoxic effects. The cytotoxicity for the compounds was determined by the MTT assay as described above. The median-effect principle and combination-index isobologram method of Chou and Talalay was used to determine the dose-effect parameters for cisplatin, DMC, or their mixtures at different combination ratios. Each drug or mixture was 3-fold serially diluted to generate a dose-effect relationship in the cytotoxic assays.
(§9) Combinations of cisplatin and DMC were evaluated for synergism, additive effect or antagonism using the median-effect plot and combination-index isobologram method of Chou and Talalay references 1-4.
This method involves plotting dose-effect curves for each agent and their combinations in multiply-diluted concentrations by using the median-effect equation [3,6]
where fa is the fraction of cells affected (ie, fraction of cells killed), fu the fraction unaffected (i.e. fraction of cells surviving; fa=1−fu), D the dose of drug and Dm the dose causing the median effect
The parameters m, Dm, and r are the slope, antilog of x-intercept, and the linear correlation coefficient of the median-effect plot, which signifies the shape of the dose-effect curve, the potency (IC50), and conformity of the data to the mass-action law, in references 3, 5 and 6, respectively. Dm and m values are used for calculating the combination index (CI) values.
CI<1, CI=1, and CI>1 indicate synergism, additivity, and antagonism, respectively. As based on the classic isobologram equation, CI can be calculated by equation:
CI=[(D)1/(Dx)1]+[(D)2/(Dx)2]+[α(D)1(D)2]/[(Dx)1(Dx)2),
Both the mutually non-exclusive and exclusive drug interaction as defined by Chou and Chou (reference 7) were evaluated.
To preclude a false-positive result, classical isobologram curve tracing was used to confirm the synergistic effect at a reasonable fractional cytotoxic effect (fa=50%).

[6] = test system: SK-Hep-1 human liver cancer; test: In vitro antitumor-drug screening, MTT assay, SK-Hep-1; format: cell-based
Method: as §1, §2, §3, §4, §5

L1210 mouse leukaemia = test: In vitro antitumor-drug screening, tetrazolium (MTT) microculture assay, L1210; format: cell-based
Method: as §1, §2, §3, §4, §5

[7] = test system: MDA-MB-231 human breast cancer; test: In vitro antitumor-drug screening, MTT assay, MDA-MB-231; format: cell-based
Method: as §1, §2, §3, §4, §5

[8] = test system: Sensitive parental L1210 mouse leukaemia; test: cells; format: cell-based; conditions: 72-hr exposure, fa = 50%
Method: as §6, §7, §8, §9
This method involves plotting dose-effect curves for each agent and their combinations in multiply-diluted concentrations by using the median-effect equation [3,6] […]
CI<1, CI=1, and CI>1 indicate synergism, additivity, and antagonism, respectively. As based on the classic isobologram equation, CI can be calculated by equation: […]
Both the mutually non-exclusive and exclusive drug interaction as defined by Chou and Chou (reference 7) were evaluated. […]

[9] = COLO320-DM human colon cancer, n = 12-16 from 3-4 independent experiments, read-out: Growth-inhibitory activity IC50 ± sd
[10] = SK-OV-3 human ovarian cancer, n = 12-16 from 3-4 independent experiments, read-out: Growth-inhibitory activity IC50 ± sd
[11] = SK-Hep-1 human liver cancer, n = 12-16 from 3-4 independent experiments, read-out: Growth-inhibitory activity IC50 ± sd
[12] = L1210 mouse leukaemia, n = 12-16 from 3-4 independent experiments, read-out: Growth-inhibitory activity IC50 ± sd
[13] = MDA-MB-231 human breast cancer, n = 12-16 from 3-4 independent experiments, read-out: Growth-inhibitory activity IC50 ± sd
[14] = sensitive parental L1210, read-out: Dm (i.e. IC50), antilog of x-intercept of the median-effect plot
[15] = Homo sapiens, COLO 320DM, COLO320DM, Table 1, read-out: In vitro antitumor activity IC50
[16] = Homo sapiens, SK-OV-3, Table 1, read-out: In vitro antitumor activity IC50
[17] = Homo sapiens, SK-HEP1, SK-Hep-1, Table 1, read-out: In vitro antitumor activity IC50
[18] = Mus musculus, L1210, Table 1, read-out: In vitro antitumor activity IC50
[19] = Homo sapiens, MDA-MB-231, Table 1, read-out: In vitro antitumor activity IC50

Row | Compound | IC50 [1] | IC50 [2] | IC50 [3, 9] | IC50 [4, 10] | fold-resistant (cross-resistance) [5] | IC50 [6, 11] | IC50 (L1210 mouse leukaemia; [12]) | IC50 [7, 13] | other results
1 | N.N.O=C([O-])C1(C(=O)[O-])CCC1.[Pt+2] [Carboplatin, reference compound] | 60.3 ± 16.4 µM | 2.75 ± 1.13 µM | 188 ± 35.8 µM | 149 ± 34.1 µM | 14.5 fold | 501 ± 86.6 µM | 10.1 ± 3.71 µM | 1080 ± 157 µM | IC50 [5]: 154 µM; fold-resistant (cross-resistance) ([5]; listed as carboplatin): ~15 fold; IC50 [8, 14]: 10.6 µM
2 | [NH2][Pt]1([NH2])[O]C(=O)C2C3CCC(O3)C2C(=O)[O]1 (stereo not drawn) [Complex 1] | 21.1 ± 10.7 µM | 0.36 ± 0.25 µM | 37.2 ± 7.14 µM | 40.8 ± 14.3 µM | 8 fold and 8.2 fold | 20.6 ± 5.89 µM | 2.71 ± 0.4 µM | 63.8 ± 8.28 µM | IC50 [5]: 42.4 µM; fold-resistant (cross-resistance) ([5]; listed as complex 1): different degree of cross-resistant; IC50 [8, 14]: 5.15 µM
3 | O=C(O)C1C2CCC(O2)C1C(=O)O (stereo not drawn) [Hydrolyzed DMC] | – | – | – | – | – | – | – | – | IC50 ([3]; COLO320DM, Table 1, read-out: In vitro antitumor activity IC50): 46.5 µM; IC50 ([4]; SK-OV-3, Table 1, read-out: In vitro antitumor activity IC50): 46.6 µM; IC50 ([6]; SK-Hep-1, Table 1, read-out: In vitro antitumor activity IC50): 7.2 µM; IC50 (L1210 mouse leukaemia; L1210, Table 1, read-out: In vitro antitumor activity IC50): 8.33 µM; IC50 ([7]; MDA-MB-231, Table 1, read-out: In vitro antitumor activity IC50): 41.7 µM
4 | O=C1OC(=O)C2C3CCC(O3)C12 (stereo not drawn) [DMC, Demethylcantharidin] | – | – | – | – | 1.1 fold | – | – | – | IC50 [3, 15]: 19.3 µM; IC50 [4, 16]: 53.8 µM; fold-resistant (cross-resistance) ([5]; listed as demethylcantharidin (DMC)): negligible cross-resistance; IC50 [6, 17]: 11.5 µM; IC50 (L1210 mouse leukaemia; [18]): 13.9 µM; IC50 [7, 19]: 31.8 µM; IC50 ([8]; Mus musculus, L1210, 72 h, read-out: Dm (i.e. IC50), antilog of x-intercept of the median-effect plot, sensitive parental L1210): 11.2 µM
5 | CC(C)[NH][Pt]1([NH]C(C)C)[O]C(=O)C2C3CCC(O3)C2C(=O)[O]1 (stereo not drawn) [Complex 2] | 26.5 ± 8.09 µM | 1.44 ± 0.41 µM | 84.7 ± 9.68 µM | 77.7 ± 19.8 µM | – | 17.2 ± 8.07 µM | 12.1 ± 2.35 µM | 94.5 ± 9.61 µM | –
6 | O=C1[O][Pt]2([NH][C@@H]3CCCC[C@H]3[NH]2)[O]C1=O [Oxaliplatin] | – | – | – | – | different degree of cross-resistant | – | – | – | –
7 | CC[NH][Pt]1([NH]CC)[O]C(=O)C2C3CCC(O3)C2C(=O)[O]1 (stereo not drawn) [Complex 4] | 3.91 ± 2.65 µM | 0.6 ± 0.24 µM | 48.5 ± 9.95 µM | 62.6 ± 33.5 µM | – | 20 ± 5.52 µM | 5.92 ± 1.94 µM | 62.5 ± 13.3 µM | –
8 | C[NH][Pt]1([NH]C)[O]C(=O)C2C3CCC(O3)C2C(=O)[O]1 (stereo not drawn) [Complex 3] | 3.44 ± 1.98 µM | 0.84 ± 0.2 µM | 48.9 ± 10.5 µM | 37.2 ± 13.4 µM | – | 15.4 ± 6.04 µM | 6.19 ± 2.67 µM | 49.4 ± 9.42 µM | –
9 | O=C1[O][Pt]2([NH]C3CCCCC3[NH]2)[O]C(=O)C2C3CCC(O3)C12 (stereo not drawn) [Complex 5] | – | – | – | – | negligible cross-resistance | – | – | – | –
10 | C[C@@]12C(=O)OC(=O)[C@]1(C)[C@H]1CC[C@@H]2O1 [Cantharidin] | – | – | – | – | – | – | – | – | IC50 [3, 15]: 35.6 µM; IC50 [4, 16]: 4.98 µM; IC50 [6, 17]: 3.34 µM; IC50 (L1210 mouse leukaemia; [18]): 38.9 µM; IC50 [7, 19]: 10.6 µM
11 | N.N.[Cl][Pt][Cl] [Cisplatin, reference compound] | 11.3 ± 4.93 µM | 0.19 ± 0.1 µM | 11.9 ± 1.5 µM | 15.2 ± 11.8 µM | 40.8 fold | 54.1 ± 9.81 µM | 0.51 ± 0.11 µM | 65.7 ± 4.39 µM | IC50 [5]: 24.6 µM; DRI for cisplatin, resistant versus sensitive parental cell line ([5]; Cisplatin:DMC 1:1.67 (resistant) versus 1:1.49 (sensitive)): about 5.5 fold; fold-resistant (cross-resistance) ([5]; listed as cisplatin): 40 fold; IC50 [8, 14]: 0.603 µM
